From ChEMBL document CHEMBL1137013, “Discovery of (2R)-2-(3-{3-[(4-Methoxyphenyl)carbonyl]-2-methyl-6-(trifluoromethoxy)-1H-indol-1-yl}phenoxy)butanoic acid (MK-0533): a novel selective peroxisome proliferator-activated receptor gamma modulator for the treatment of type 2 diabetes mellitus with a reduced potential to increase plasma …” (J Med Chem, 2009)
The source made the active and inactive calls. No cut-off for these calls is given here.

Tests used:
[1] = biological target: T1, Peroxisome proliferator-activated receptor alpha (Canis lupus familiaris) (UniProt Q95N78); assay: Agonist activity at dog PPARalpha at 3000 nM; type: functional
T1 sequence (whole entry): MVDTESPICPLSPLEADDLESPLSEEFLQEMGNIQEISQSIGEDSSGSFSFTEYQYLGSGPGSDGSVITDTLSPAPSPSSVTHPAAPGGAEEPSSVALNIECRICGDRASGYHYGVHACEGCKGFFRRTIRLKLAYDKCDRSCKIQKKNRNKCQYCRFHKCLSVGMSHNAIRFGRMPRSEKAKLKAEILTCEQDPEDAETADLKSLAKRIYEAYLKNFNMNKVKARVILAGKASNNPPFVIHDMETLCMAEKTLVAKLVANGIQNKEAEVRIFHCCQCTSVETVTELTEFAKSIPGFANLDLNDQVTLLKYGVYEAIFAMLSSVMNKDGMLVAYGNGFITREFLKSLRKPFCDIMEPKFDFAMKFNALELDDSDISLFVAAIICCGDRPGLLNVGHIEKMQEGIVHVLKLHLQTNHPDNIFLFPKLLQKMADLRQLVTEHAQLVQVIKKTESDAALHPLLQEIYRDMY

[2] = system: Rattus norvegicus; assay: Toxicity in obese insulin-resistant Zucker fa/fa rat assessed as increase in extracellular fluid volume at 3 to 150 mg/kg, po once daily for 7 days measured after 24 hrs by bioelectrical impedance analysis; type: organism-based; design: dose 3-150 mg/kg, route oral; details: in vivo
[3] = Oral bioavailability in rat; type: ADME, organism-based; details: in vivo
[4] = Plasma clearance in dog; type: ADME, organism-based, Canis lupus familiaris
[5] = system: Liver microsomes; assay: Protein binding in rat liver microsomes assessed per mg of protein; type: ADME, Microsome
[6] = biological target: T2, Peroxisome proliferator-activated receptor alpha (Canis lupus familiaris, UniProt Q95N78); assay: Agonist activity at dog PPARalpha; type: functional; details: read-out: EC50
T2 sequence (Q95N78 whole entry): T1 sequence (whole entry)

[7] = Cmax in dog; type: ADME, organism-based, Canis lupus familiaris; details: in vivo
[8] = system: Rattus norvegicus; assay: Antidiabetic activity in obese insulin-resistant Zucker fa/fa rat assessed as decrease in plasma free fatty acid level at 3 to 150 mg/kg, po once daily for 7 days; type: functional, organism-based
[9] = Cmax in rat; type: ADME, organism-based; details: in vivo
[10] = biological target: T3, Peroxisome proliferator-activated receptor gamma (Homo sapiens, UniProt P37231)
T3 sequence (P37231 whole entry): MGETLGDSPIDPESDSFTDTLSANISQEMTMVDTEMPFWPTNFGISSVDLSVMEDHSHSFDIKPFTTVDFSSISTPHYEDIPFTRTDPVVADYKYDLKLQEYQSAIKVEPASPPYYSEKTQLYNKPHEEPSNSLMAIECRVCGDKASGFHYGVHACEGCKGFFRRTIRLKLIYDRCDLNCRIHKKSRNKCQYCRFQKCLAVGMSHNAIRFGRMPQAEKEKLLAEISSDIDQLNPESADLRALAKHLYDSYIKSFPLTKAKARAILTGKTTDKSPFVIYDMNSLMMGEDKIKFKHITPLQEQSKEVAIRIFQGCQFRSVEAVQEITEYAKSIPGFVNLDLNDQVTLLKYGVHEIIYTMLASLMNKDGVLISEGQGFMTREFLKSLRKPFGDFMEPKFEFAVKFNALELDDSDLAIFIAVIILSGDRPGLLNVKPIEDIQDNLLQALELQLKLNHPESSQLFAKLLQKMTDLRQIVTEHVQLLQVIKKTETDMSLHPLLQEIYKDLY
Description: Displacement of [3H2]nTZD3 from human recombinant GST-fused PPARgamma expressed in Escherichia coli by scintillation proximity assay

[11] = system: Rattus norvegicus; assay: Antidiabetic activity in obese insulin-resistant Zucker fa/fa rat assessed as decrease in plasma insulin level at 3 to 150 mg/kg, po once daily for 7 days; type: functional, organism-based
[12] = biological target: T4, Peroxisome proliferator-activated receptor alpha (Mus musculus) (UniProt P23204); assay: Agonist activity at mouse PPARalpha at 3000 nM; type: functional
T4 sequence (whole entry): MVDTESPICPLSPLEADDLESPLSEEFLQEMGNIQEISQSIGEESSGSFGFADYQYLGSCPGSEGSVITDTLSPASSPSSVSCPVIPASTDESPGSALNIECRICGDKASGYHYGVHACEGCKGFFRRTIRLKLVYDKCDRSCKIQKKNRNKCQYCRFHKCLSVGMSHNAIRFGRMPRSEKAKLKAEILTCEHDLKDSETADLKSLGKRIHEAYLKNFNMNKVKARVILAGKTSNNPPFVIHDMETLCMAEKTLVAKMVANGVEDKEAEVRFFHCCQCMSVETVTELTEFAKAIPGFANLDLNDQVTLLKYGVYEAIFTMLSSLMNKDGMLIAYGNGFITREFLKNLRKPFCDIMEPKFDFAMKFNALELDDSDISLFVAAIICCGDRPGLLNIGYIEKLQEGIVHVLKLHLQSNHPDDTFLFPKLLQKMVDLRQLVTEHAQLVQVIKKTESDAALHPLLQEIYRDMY

[13] = Volume of distribution at steady state in monkey; type: ADME, organism-based, Macaca mulatta; details: rhesus monkey, in vivo; read-out: Vdss
[14] = system: Mus musculus; assay: Antihyperglycemic activity in db/db mouse assessed as plasma adiponectin level at 30 mg/kg, po administered once daily for 11 days by RIA; type: functional
[15] = biological target: T5, Peroxisome proliferator-activated receptor alpha (Mus musculus, UniProt P23204); assay: Agonist activity at mouse PPARalpha; type: functional; details: read-out: EC50
T5 sequence (P23204 whole entry): T4 sequence (whole entry)

[16] = system: Rattus norvegicus; assay: Toxicity in Sprague-Dawley rat assessed as liver weight at 300 mg/kg dosed daily for 2 weeks; type: organism-based; design: dose 300 mg/kg; details: in vivo, 336 h
[17] = system: Rattus norvegicus; assay: Toxicity in Sprague-Dawley rat assessed as brown adipose tissue weight at 300 mg/kg dosed daily for 2 weeks; type: organism-based; design: dose 300 mg/kg; details: in vivo, 336 h
[18] = Plasma clearance in monkey; type: ADME, organism-based, Macaca mulatta; details: rhesus monkey
[19] = system: Rattus norvegicus; assay: Toxicity in obese insulin-resistant Zucker fa/fa rat assessed as increase in plasma volume at 30 mg/kg, po once daily for 7 days by Evans blue dye dilution technique; type: organism-based; design: dose 30 mg/kg, route oral; details: in vivo, 168 h

For `CC[C@@H](Oc1cccc(-n2c(C)c(C(=O)c3ccc(OC)cc3)c3ccc(OC(F)(F)F)cc32)c1)C(=O)O` [MK-0533], the Activity [1] was 35%, the Activity [2] was “Non-toxic” and the bioavailability [3] was 81%. The clearance [4] was 7.5 mL/min/kg, the PB [5] was less than 10 pmol and the EC50 [6] was 370 nM. For the same molecule, the Cmax [7] was 2400 nM, the Activity [8] was “Active” and the Cmax [9] was 1000 nM. The IC50 [10] was 9 nM, the Activity [11] was “Active” and the Activity [12] was 53%. For the same molecule, the Vd [13] was 0.7 L/kg, the Activity [14] was 48.1 µg/mL and the EC50 [15] was 240 nM. It also gave an Activity [16] of 19.7 g, an Activity [17] of 537 mg and a clearance [18] of 10.1 mL/min/kg. The Activity [19] was “Non-toxic”.
